Laboratory results: patent publication US20100297020A1, “PHOSPHORYLATED AND PHOSPHONATED PYRONE ANALOGS FOR THERAPEUTIC TREATMENT” (Limerick Biopharma, Inc., priority 2008, published 2010)
Where two headings read alike, the source gives them in different places. One block for each molecule: values may come before it.

Key:
[1] = target: Protein Tyrosine Kinase, Insulin Receptor (Homo sapiens, UniProt P06213); test: Secondary toxicity screen: Insulin Receptor kinase; assay type: biochemical
[2] = tested on: ATPase, Na+/K+, Heart, Pig; test: Secondary toxicity screen (MDS Pharma Services): ATPase, Na+/K+; assay type: biochemical
[3] = target: Protein Tyrosine Kinase, FGFR1 (Homo sapiens, UniProt P11362); test: Secondary toxicity screen: FGFR1; assay type: biochemical
Sequence of Protein Tyrosine Kinase, FGFR1 (P11362 22-822): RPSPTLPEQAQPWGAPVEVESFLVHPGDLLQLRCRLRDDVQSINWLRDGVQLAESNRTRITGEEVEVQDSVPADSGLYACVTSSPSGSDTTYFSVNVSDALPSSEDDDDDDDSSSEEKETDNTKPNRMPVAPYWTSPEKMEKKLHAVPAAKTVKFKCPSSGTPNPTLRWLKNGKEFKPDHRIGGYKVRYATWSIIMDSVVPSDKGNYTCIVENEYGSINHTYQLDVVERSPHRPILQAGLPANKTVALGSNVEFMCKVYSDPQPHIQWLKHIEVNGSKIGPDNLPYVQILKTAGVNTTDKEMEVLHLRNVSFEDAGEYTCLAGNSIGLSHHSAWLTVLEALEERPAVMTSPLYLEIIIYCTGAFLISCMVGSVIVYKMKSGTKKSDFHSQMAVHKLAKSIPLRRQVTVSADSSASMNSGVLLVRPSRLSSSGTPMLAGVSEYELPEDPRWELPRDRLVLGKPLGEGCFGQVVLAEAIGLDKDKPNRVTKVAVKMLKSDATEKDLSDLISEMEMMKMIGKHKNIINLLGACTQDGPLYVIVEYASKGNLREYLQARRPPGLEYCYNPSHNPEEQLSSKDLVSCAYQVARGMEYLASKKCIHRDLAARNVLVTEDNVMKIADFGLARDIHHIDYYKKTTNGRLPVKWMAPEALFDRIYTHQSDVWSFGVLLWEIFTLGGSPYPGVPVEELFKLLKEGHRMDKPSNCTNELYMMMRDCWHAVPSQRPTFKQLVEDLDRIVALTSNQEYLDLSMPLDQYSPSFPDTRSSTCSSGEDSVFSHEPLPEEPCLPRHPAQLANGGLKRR

[4] = pH 8
Protein Tyrosine Kinase, = test: Secondary toxicity screen: Protein Tyrosine Kinase (name not given); assay type: biochemical
[5] = tested on: Transporter, Monoamine rabbit; test: Secondary toxicity screen: Transporter, Monoamine; assay type: binding
[6] = target: Serotonin (5-Hydroxytryptamine) 5-HT1A (Homo sapiens, UniProt P08908); test: Secondary toxicity screen: 5-HT1A; assay type: binding
Sequence of Serotonin (5-Hydroxytryptamine) 5-HT1A (P08908 whole entry): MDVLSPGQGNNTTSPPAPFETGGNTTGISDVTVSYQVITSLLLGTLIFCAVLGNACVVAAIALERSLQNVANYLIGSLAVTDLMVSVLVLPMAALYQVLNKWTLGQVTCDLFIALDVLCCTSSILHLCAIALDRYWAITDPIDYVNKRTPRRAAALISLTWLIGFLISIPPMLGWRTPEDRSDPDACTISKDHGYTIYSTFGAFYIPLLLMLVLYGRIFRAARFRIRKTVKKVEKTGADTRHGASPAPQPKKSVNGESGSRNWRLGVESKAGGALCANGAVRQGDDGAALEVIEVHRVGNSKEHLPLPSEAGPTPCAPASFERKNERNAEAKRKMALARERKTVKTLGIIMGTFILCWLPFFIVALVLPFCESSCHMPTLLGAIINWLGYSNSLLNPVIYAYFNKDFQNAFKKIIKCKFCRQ

Adrenergic α2A = Adrenergic α2A (Homo sapiens, UniProt P08913); test: Secondary toxicity screen: Adrenergic α2A; assay type: binding
AdrenergicA2A = target: T1, AdrenergicA2A (Homo sapiens, UniProt P08913); test: AdrenergicA2A GTPγS functional assay; assay type: biochemical
T1 sequence (P08913 1-465): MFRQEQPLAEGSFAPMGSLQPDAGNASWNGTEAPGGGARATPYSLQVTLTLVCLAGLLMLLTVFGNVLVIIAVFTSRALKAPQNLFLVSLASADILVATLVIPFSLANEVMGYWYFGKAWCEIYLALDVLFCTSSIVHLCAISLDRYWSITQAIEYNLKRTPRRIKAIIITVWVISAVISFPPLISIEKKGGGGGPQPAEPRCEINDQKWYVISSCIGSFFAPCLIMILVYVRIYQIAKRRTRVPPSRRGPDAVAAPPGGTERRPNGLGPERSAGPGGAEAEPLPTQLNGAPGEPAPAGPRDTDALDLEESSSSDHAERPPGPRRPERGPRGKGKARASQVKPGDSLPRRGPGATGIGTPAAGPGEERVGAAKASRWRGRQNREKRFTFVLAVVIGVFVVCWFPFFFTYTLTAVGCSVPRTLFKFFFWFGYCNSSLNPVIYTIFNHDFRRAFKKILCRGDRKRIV
Procedure: (§1) The compound is additionally tested in AdenosineA1, AdrenergicA2A, DopamineD25, Histamine H1-, and μ-Opiate GTPγS functional assays using a concentration of 10 μM.
(§2) The compound may be additionally tested in AdenosineA1, AdrenergicA2A, DopamineD25, Histamine H1-, and μ-Opiate GTPγS functional assays using a concentration of 10 μM.
(§3) The compound can be additionally tested in AdenosineA1, AdrenergicA2A, DopamineD25, Histamine H1-, and μ-Opiate GTPγS functional assays using a concentration of 10 μM.

[7] = target: Protein Tyrosine Kinase, ZA70 (ZAP-70) (Homo sapiens, UniProt P43403); test: Secondary toxicity screen: ZAP-70; assay type: biochemical
Sequence of Protein Tyrosine Kinase, ZA70 (ZAP-70) (P43403 whole entry, species assumed): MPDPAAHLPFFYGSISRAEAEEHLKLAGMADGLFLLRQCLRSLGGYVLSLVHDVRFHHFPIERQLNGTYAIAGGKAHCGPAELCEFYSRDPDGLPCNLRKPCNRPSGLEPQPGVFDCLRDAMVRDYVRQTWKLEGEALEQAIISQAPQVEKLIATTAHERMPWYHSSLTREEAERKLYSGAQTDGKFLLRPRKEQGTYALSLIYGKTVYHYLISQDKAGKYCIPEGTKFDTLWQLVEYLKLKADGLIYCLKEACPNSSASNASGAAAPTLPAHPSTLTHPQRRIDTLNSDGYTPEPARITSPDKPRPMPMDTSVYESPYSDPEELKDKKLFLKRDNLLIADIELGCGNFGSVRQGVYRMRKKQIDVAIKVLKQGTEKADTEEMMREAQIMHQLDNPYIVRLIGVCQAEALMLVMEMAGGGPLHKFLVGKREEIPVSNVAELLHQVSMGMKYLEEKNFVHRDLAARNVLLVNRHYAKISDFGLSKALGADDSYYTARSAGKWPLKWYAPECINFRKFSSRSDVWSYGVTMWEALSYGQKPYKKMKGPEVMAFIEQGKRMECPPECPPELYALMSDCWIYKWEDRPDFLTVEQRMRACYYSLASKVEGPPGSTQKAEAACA

[8] = target: UDP Glucuronosyltransferase, UGT1A1 (Homo sapiens, UniProt P22309)
Sequence of UDP Glucuronosyltransferase, UGT1A1 (P22309 26-533): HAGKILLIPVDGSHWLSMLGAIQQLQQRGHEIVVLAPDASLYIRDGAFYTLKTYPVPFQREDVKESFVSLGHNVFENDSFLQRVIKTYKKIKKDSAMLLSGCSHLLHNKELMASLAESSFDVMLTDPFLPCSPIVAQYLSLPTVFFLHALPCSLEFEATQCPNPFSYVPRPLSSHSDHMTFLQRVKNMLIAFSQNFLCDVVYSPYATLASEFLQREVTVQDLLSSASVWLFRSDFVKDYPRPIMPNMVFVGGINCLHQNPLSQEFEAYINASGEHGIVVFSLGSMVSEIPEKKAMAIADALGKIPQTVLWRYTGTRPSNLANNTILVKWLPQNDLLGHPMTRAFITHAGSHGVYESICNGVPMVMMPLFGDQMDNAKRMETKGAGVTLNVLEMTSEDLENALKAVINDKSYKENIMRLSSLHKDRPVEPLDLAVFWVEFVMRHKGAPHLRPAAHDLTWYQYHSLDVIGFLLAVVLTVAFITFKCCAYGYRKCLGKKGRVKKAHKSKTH

AdenosineA1 [9] = target: T2, AdenosineA1 (Homo sapiens, UniProt P30542); test: Secondary toxicity screen: Adenosine A1; assay type: binding
T2 sequence (P30542 1-326): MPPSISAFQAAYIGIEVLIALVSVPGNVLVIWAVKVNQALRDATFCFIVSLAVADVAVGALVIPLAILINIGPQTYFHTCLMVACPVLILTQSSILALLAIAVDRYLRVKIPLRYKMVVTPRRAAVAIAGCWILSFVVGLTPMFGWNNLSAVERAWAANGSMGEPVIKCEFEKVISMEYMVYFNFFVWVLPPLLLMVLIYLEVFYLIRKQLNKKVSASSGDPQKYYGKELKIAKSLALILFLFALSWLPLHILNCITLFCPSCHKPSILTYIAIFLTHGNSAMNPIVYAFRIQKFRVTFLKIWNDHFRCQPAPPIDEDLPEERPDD

AdenosineA1 [10] = target: T2, AdenosineA1; test: AdenosineA1 GTPγS functional assay; assay type: biochemical
Procedure: as §1, §2, §3

[11] = target: Nitric Oxide Synthase, Endothelial (eNOS) (Homo sapiens, UniProt P29474); test: Secondary toxicity screen: eNOS; assay type: biochemical
[12] = target: Peripheral Benzodiazepine Receptor (PBR) (Homo sapiens, UniProt P30536); test: Secondary toxicity screen: Peripheral Benzodiazepine Receptor; assay type: binding
Sequence of Peripheral Benzodiazepine Receptor (PBR) (P30536 whole entry, species assumed): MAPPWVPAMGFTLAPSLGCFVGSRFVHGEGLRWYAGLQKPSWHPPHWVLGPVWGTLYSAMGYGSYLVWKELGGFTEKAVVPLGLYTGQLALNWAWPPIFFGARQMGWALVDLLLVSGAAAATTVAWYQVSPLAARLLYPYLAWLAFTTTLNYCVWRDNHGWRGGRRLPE

[13] = target: Protein Tyrosine Kinase, FGFR2 (Homo sapiens, UniProt P21802); test: Secondary toxicity screen: FGFR2; assay type: biochemical
Sequence of Protein Tyrosine Kinase, FGFR2 (P21802 22-821): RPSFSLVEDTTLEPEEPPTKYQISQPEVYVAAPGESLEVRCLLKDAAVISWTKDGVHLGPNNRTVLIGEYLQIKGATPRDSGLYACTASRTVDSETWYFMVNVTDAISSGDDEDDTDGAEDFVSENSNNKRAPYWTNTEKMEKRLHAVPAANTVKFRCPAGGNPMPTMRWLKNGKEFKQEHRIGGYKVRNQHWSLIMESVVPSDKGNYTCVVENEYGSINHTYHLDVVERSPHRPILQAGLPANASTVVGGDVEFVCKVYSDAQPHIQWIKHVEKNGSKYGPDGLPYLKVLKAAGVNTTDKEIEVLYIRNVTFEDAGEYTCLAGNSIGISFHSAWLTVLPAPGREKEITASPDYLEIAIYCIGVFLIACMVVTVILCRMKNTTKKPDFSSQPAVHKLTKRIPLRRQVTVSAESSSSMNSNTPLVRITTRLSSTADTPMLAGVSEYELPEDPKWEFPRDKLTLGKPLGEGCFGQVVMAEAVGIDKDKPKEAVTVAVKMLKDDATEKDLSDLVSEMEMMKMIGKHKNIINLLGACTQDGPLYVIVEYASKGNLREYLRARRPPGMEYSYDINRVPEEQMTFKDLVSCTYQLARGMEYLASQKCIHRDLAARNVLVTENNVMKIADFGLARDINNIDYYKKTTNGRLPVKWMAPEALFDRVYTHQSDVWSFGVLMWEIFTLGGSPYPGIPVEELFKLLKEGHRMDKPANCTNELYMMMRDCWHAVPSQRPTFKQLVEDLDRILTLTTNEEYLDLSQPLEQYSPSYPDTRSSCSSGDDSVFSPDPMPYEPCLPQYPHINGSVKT

Dopamine D47 = test: Secondary toxicity screen: Dopamine D47; assay type: binding
[14] = target: UGT1A1 (UDP glucuronosyltransferase) (Homo sapiens, UniProt P22309); test: in vitro
Sequence of UGT1A1 (UDP glucuronosyltransferase) (P22309 26-533): as the sequence (P22309 26-533) above

[15] = 10 uM, read-out: percent inhibition at 10 μM

Sequence of Protein Tyrosine Kinase, Insulin Receptor (P06213 28-1382): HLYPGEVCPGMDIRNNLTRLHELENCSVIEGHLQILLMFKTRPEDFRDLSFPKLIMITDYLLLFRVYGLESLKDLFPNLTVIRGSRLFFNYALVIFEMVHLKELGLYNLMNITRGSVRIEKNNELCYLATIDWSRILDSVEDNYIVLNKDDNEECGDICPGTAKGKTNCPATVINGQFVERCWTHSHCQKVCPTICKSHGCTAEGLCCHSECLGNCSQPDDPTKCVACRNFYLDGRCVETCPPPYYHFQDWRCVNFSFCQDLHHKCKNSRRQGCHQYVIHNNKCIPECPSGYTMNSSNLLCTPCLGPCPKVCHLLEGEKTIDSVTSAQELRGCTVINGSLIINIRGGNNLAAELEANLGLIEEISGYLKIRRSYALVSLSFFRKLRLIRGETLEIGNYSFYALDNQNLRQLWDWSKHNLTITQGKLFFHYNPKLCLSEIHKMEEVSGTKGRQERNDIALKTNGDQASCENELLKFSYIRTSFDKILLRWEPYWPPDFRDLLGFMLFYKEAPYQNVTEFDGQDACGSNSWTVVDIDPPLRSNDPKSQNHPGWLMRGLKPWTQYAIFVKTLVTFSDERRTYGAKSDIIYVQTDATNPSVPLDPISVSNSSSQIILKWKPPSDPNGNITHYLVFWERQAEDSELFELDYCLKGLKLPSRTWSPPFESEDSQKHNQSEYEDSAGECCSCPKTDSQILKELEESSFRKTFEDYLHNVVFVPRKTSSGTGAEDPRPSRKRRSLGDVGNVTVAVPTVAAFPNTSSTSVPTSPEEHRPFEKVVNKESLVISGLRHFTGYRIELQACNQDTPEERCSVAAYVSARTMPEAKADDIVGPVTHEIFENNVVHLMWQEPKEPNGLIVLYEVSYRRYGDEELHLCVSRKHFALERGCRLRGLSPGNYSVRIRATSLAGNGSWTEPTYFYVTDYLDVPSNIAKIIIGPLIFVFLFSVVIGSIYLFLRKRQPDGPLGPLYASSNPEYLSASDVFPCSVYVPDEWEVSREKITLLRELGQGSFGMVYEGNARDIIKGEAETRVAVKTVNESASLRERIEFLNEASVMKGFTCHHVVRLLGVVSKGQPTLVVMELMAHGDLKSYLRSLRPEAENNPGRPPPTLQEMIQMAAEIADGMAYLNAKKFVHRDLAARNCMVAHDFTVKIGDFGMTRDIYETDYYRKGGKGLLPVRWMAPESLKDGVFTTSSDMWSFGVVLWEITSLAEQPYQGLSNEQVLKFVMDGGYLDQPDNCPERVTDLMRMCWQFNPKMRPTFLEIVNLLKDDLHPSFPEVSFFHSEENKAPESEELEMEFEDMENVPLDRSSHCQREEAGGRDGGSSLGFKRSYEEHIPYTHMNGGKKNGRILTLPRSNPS

SMILES: O=c1c(O)c(-c2ccc(O)c(OP(=O)(O)O)c2)oc2cc(O)ccc12 [fisetin-3′-O-phosphate, Fisetin-3′-O-phosphate]
percent inhibition at 10 μM [1]: 91%
percent inhibition at 10 μM [2]: 65%
percent inhibition at 10 μM [3]: 96%
degradation seen by NMR and HPLC [4]: no degradation
percent inhibition at 10 μM (Protein Tyrosine Kinase,): 82%
percent inhibition at 10 μM [5]: 68%
percent inhibition at 10 μM [6]: 62%
percent inhibition at 10 μM (Adrenergic α2A): 57%
inhibition in the AdrenergicA2A assay (AdrenergicA2A): marked negative inhibition
percent inhibition at 10 μM [7]: 74%
percent inhibition at 10 μM [8]: 52%
percent inhibition at 10 μM (AdenosineA1 [9]): 50%
antagonist activity in the AdenosineA1 assay (AdenosineA1 [10]): 48%
percent inhibition at 10 μM [11]: 72%
percent inhibition at 10 μM [12]: 53%
percent inhibition at 10 μM [13]: 94%
percent inhibition at 10 μM (Dopamine D47): 51%

degradation seen by NMR and HPLC [4]: no degradation
inhibition at 10 µM [14]: 52%
inhibition in the AdrenergicA2A assay (AdrenergicA2A; 10 μM): marked negative inhibition
antagonist activity in the AdenosineA1 assay (AdenosineA1 [10]; 10 μM): 48%
SMILES: O=c1c(O)c(-c2ccc(O)c(OP(=O)(O)O)c2)oc2cc(O)cc(O)c12 [quercetin-3′-O-phosphate]
inhibition at 10 µM [1, 15]: 91%
percent inhibition at 10 μM ([2]; 10 uM): 65%
inhibition at 10 µM [3, 15]: 96%
percent inhibition at 10 μM (Protein Tyrosine Kinase,; 10 uM): 82%
percent inhibition at 10 μM ([5]; 10 uM): 68%
inhibition at 10 µM [6, 15]: 62%
inhibition at 10 µM (Adrenergic α2A; [15]): 57%
inhibition at 10 µM [7, 15]: 74%
inhibition at 10 µM (AdenosineA1 [9]; [15]): 50%
inhibition at 10 µM [11, 15]: 72%
inhibition at 10 µM [12, 15]: 53%
inhibition at 10 µM [13, 15]: 94%
percent inhibition at 10 μM (Dopamine D47; 10 uM): 51%
